This passage reports IC50 results from EP4755888A1 (ILAb Co., Ltd., priority 2023, dated 2025).

One may read the IC50 as the concentration that gives 50% inhibition.

The target of the test is PD-1/PD-L1 (Homo sapiens, UniProt Q9NZQ7). Description: TR-FRET PD-1/PD-L1 binding inhibition at the molecular level (free proteins). The conditions noted are these: Tag1-PD-L1 and Tag2-PD-1 proteins, twelve concentrations from 200 nM, 2 hours at room temperature, read-out: FRET assay (IC50). In short, it runs like this: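 HTRF read-out at 665/620 nm after 2 h at room temperature. Detection used anti-Tag1 Eu cryptate plus anti-Tag2 XL665 antibodies. Tagged PD-L1 and PD-1 proteins were pre-mixed with compound across twelve […] 1:2 dilutions starting at 200 nM.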
PD-1/PD-L1, sequence (Q9NZQ7 19-238 limits assumed): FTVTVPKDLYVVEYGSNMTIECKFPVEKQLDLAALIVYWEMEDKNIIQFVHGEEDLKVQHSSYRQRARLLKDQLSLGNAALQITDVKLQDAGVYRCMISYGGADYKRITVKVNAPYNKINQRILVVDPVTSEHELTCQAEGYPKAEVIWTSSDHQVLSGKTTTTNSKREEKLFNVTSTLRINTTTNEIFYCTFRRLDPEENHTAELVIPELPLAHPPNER
A general note: Time-resolved FRET reads energy transfer from a long-lived donor to a nearby acceptor.
As for `Cc1c(NC(=O)c2ccc(CN3CC[C@@H](O)C3)cn2)cccc1-c1cccc(NC(=O)c2cc3n(n2)CCCC3NCC(=O)O)c1C` (stereo partly drawn) [Compound 95, 2-((2-((3'-(5-(((R)-3-hydroxypyrrolidin-1-yl)methyl)picolinamido)-2,2'-dimethyl-[1,1'-biphenyl]-3-yl)carbamoyl)-4,5,6,7-tetrahydropyrazolo[1,5-a]pyridin-4-yl)amino)acetic acid], the IC50 is under 10 nM. With `O=C(Nc1cccc(-c2cccc(Nc3nc(C(F)(F)F)nc4cccnc34)c2Cl)c1Cl)c1cc2n(n1)CCC[C@H]2N1CCC(C(=O)O)CC1` [Compound 274, (R)-1-(2-((2,2'-dichloro-3'-((2-(trifluoromethyl)pyrido[3,2-d]pyrimidin-4-yl)amino)-[1,1'-biphenyl]-3-yl)carbamoyl)-4,5,6,7-tetrahydropyrazolo[1,5-a]pyridin-4-yl)piperidine-4-carboxylic acid] the figure was 10 to 100 nM. For the compound `O=C(Nc1cccc(-c2cccc(Nc3nc(C(F)(F)F)nc4cccnc34)c2Cl)c1Cl)c1cc2n(n1)CCC[C@@H]2N1CC(C(=O)O)C1` [Compound 277, (S)-1-(2-((2,2'-dichloro-3'-((2-(trifluoromethyl)pyrido[3,2-d]pyrimidin-4-yl)amino)-[1,1'-biphenyl]-3-yl)carbamoyl)-4,5,6,7-tetrahydropyrazolo[1,5-a]pyridin-4-yl)azetidine-3-carboxylic acid], the IC50 is 10 to 100 nM. For the compound `Cc1c(NC(=O)c2cc3n(n2)CCC[C@@H]3N2CCC(O)CC2)cccc1-c1cccc(Nc2nc(C(F)(F)F)nc3cccnc23)c1C` (stereo in doubt) [Compound 286, (S)-N-(2,2'-dimethyl-3'-((2-(trifluoromethyl)pyrido[3,2-d]pyrimidin-4-yl)amino)-[1,1'-biphenyl]-3-yl)-4-(4-hydroxypiperidin-1-yl)-4,5,6,7-tetrahydropyrazolo[1,5-a]pyridine-2-carboxamide], the IC50 fell in the range of 10 to 100 nM. For `Cc1c(NC(=O)c2cc3n(n2)CCCC3O)cccc1-c1cccc(-c2nc3cc(CN4CC[C@@H](C(=O)O)C4)cc(C#N)c3o2)c1C` (stereo partly drawn) [Compound 61, (3R)-1-((7-cyano-2-(3'-(4-hydroxy-4,5,6,7-tetrahydropyrazolo[1,5-a]pyridine-2-carboxamido)-2,2'-dimethyl-[1,1'-biphenyl]-3-yl)benzo[d]oxazol-5-yl)methyl)pyrrolidine-3-carboxylic acid], the IC50 was under 10 nM. Consider `Cc1c(NC(=O)c2ccc(CNCCO)cn2)cccc1-c1cccc(NC(=O)c2cc3n(n2)CCCC3N2CC[C@@H](O)C2)c1C` (stereo partly drawn) [Compound 73, N-(3'-(5-(((2-hydroxyethyl)amino)methyl)picolinamido)-2,2'-dimethyl-[1,1'-biphenyl]-3-yl)-4-((R)-3-hydroxypyrrolidin-1-yl)-4,5,6,7-tetrahydropyrazolo[1,5-a]pyridine-2-carboxamide], for which the 50% inhibitory concentration (IC50) was under 10 nM.

As for `Cc1c(NC(=O)c2cc3n(n2)CCCC3NCC(=O)O)cccc1-c1cccc(-c2nc3c(s2)CCN(C)C3)c1C` (stereo not drawn) [Compound 153, 2-((2-((2,2'-dimethyl-3'-(5-methyl-4,5,6,7-tetrahydrothiazolo[4,5-c]pyridin-2-yl)-[1,1'-biphenyl]-3-yl)carbamoyl)-4,5,6,7-tetrahydropyrazolo[1,5-a]pyridin-4-yl)amino)acetic acid], the IC50 is under 10 nM. With `O=C(Nc1cccc(-c2cccc(Nc3nccc4nccnc34)c2Cl)c1Cl)c1cc2n(n1)CCC[C@H]2N1CC(C(=O)O)C1` [Compound 263, (R)-1-(2-((2,2'-dichloro-3'-(pyrido[3,4-b]pyrazin-5-ylamino)-[1,1'-biphenyl]-3-yl)carbamoyl)-4,5,6,7-tetrahydropyrazolo[1,5-a]pyridin-4-yl)azetidine-3-carboxylic acid] the figure was under 10 nM; with `COc1cc(C(=O)Nc2cccc(-c3cccc(NC(=O)c4cc5n(n4)CCCC5NCC(=O)O)c3Cl)c2Cl)cc(F)c1CNCCO` (stereo not drawn) [Compound 190, 2-((2-((2,2'-dichloro-3'-(3-fluoro-4-(((2-hydroxyethyl)amino)methyl)-5-methoxybenzamido)-[1,1'-biphenyl]-3-yl)carbamoyl)-4,5,6,7-tetrahydropyrazolo[1,5-a]pyridin-4-yl)amino)acetic acid], under 10 nM.

As for `O=C(Nc1cccc(-c2cccc(NC(=O)c3cc4n(n3)CCCC4N3CC[C@@H](C(=O)O)C3)c2Cl)c1Cl)c1ccc(CN2CC[C@@H](O)C2)cn1` (stereo partly drawn) [Compound 105, (3R)-1-(2-((2,2'-dichloro-3'-(5-(((R)-3-hydroxypyrrolidin-1-yl)methyl)picolinamido)-[1,1'-biphenyl]-3-yl)carbamoyl)-4,5,6,7-tetrahydropyrazolo[1,5-a]pyridin-4-yl)pyrrolidine-3-carboxylic acid], the IC50 was under 10 nM. With `Cc1c(NC(=O)c2ccc(CNCCO)cn2)cccc1-c1cccc(NC(=O)c2cc3n(n2)CCCC3NCCO)c1C` (stereo not drawn) [Compound 74], the IC50 was under 10 nM.

In the case of `O=C(Nc1cccc(-c2cccc(Nc3nccc4cc(CN5CC[C@@H](O)C5)cnc34)c2Cl)c1Cl)c1cc2n(n1)CCCC2N1CC(O)C1` (stereo partly drawn) [Compound 232, N-(2,2'-dichloro-3'-((3-(((R)-3-hydroxypyrrolidin-1-yl)methyl)-1,7-naphthyridin-8-yl)amino)-[1,1'-biphenyl]-3-yl)-4-(3-hydroxyazetidin-1-yl)-4,5,6,7-tetrahydropyrazolo[1,5-a]pyridine-2-carboxamide], the IC50 lay in the range of 10 to 100 nM. As for `O=C(Nc1cccc(-c2cccc(NC(=O)c3nc4c(s3)CN(CCF)CC4)c2Cl)c1Cl)c1cc2n(n1)CCCC2NCCO` (stereo not drawn) [Compound 150-1, N-(2,2'-dichloro-3'-(4-((2-hydroxyethyl)amino)-4,5,6,7-tetrahydropyrazolo[1,5-a]pyridine-2-carboxamido)-[1,1'-biphenyl]-3-yl)-5-(2-fluoroethyl)-4,5,6,7-tetrahydrothiazolo[5,4-c]pyridine-2-carboxamide], the IC50 is under 10 nM. The value for `Cc1c(NC(=O)c2ccc(CN3CC[C@@H](O)C3)cn2)cccc1-c1cccc(NC(=O)c2cc3n(n2)CCC[C@@H]3N2CCC[C@@H]2CO)c1C` [Compound 310, (S)-4-((R)-2-(hydroxymethyl)pyrrolidin-1-yl)-N-(3'-(5-(((R)-3-hydroxypyrrolidin-1-yl)methyl)picolinamido)-2,2'-dimethyl-[1,1'-biphenyl]-3-yl)-4,5,6,7-tetrahydropyrazolo[1,5-a]pyridine-2-carboxamide] was under 10 nM; that for `Cc1c(NC(=O)c2cc3n(n2)CCCC3O)cccc1-c1cccc(-c2ccc(CNC[C@@H]3CCC(=O)N3)cc2)c1C` (stereo partly drawn) [Compound 109, N-(2,2'-dimethyl-4"-(((((S)-5-oxopyrrolidin-2-yl)methyl)amino)methyl)-[1,1':3',1"-terphenyl]-3-yl)-4-hydroxy-4,5,6,7-tetrahydropyrazolo[1,5-a]pyridine-2-carboxamide] was under 10 nM; that for `Cc1c(NC(=O)c2cc3n(n2)CCC[C@@H]3N2CCC(C(=O)O)CC2)cccc1-c1cccc(Nc2nc(C(F)(F)F)nc3cc(CN4CC[C@@H](O)C4)cnc23)c1C` [Compound 342, 1-((S)-2-((3'-((7-(((R)-3-hydroxypyrrolidin-1-yl)methyl)-2-(trifluoromethyl)pyrido[3,2-d]pyrimidin-4-yl)amino)-2,2'-dimethyl-[1,1'-biphenyl]-3-yl)carbamoyl)-4,5,6,7-tetrahydropyrazolo[1,5-a]pyridin-4-yl)piperidine-4-carboxylic acid] was 10 to 100 nM. With `O=C(Nc1cccc(-c2cccc(Nc3nc(C(F)F)nc4cc(CN5CC[C@@H](O)C5)cnc34)c2Cl)c1Cl)c1cc2n(n1)CCC[C@@H]2N1CCC(O)CC1` [Compound 295, (S)-N-(2,2'-dichloro-3'-((2-(difluoromethyl)-7-(((R)-3-hydroxypyrrolidin-1-yl)methyl)pyrido[3,2-d]pyrimidin-4-yl)amino)-[1,1'-biphenyl]-3-yl)-4-(4-hydroxypiperidin-1-yl)-4,5,6,7-tetrahydropyrazolo[1,5-a]pyridine-2-carboxamide] the figure was 10 to 100 nM.

For the compound `COc1cc(-c2cccc(-c3cccc(NC(=O)c4cc5n(n4)CCCC5NCCO)c3Cl)c2Cl)cc(F)c1CNCCO` (stereo not drawn) [Compound 124, N-(2,2'-dichloro-3"-fluoro-4"-(((2-hydroxyethyl)amino)methyl)-5"-methoxy-[1,1':3',1"-terphenyl]-3-yl)-4-((2-hydroxyethyl)amino)-4,5,6,7-tetrahydropyrazolo[1,5-a]pyridine-2-carboxamide], the IC50 was under 10 nM. In the case of `O=C(Nc1cccc(-c2cccc(NC(=O)c3cc4n(n3)CCCC4N3CCC(C(=O)O)CC3)c2Cl)c1Cl)c1ccc(CNCCO)cn1` (stereo not drawn) [Compound 88, 1-(2-((2,2'-dichloro-3'-(5-(((2-hydroxyethyl)amino)methyl)picolinamido)-[1,1'-biphenyl]-3-yl)carbamoyl)-4,5,6,7-tetrahydropyrazolo[1,5-a]pyridin-4-yl)piperidine-4-carboxylic acid], the IC50 is under 10 nM.

For the compound `CC(=O)NCCNC1CCCn2nc(C(=O)Nc3cccc(-c4cccc(Nc5nccc6cc(CN7CC[C@@H](O)C7)cnc56)c4Cl)c3Cl)cc21` (stereo partly drawn) [Compound 19, 4-((2-acetamidoethyl)amino)-N-(2,2'-dichloro-3'-((3-(((R)-3-hydroxypyrrolidin-1-yl)methyl)-1,7-naphthyridin-8-yl)amino)-[1,1'-biphenyl]-3-yl)-4,5,6,7-tetrahydropyrazolo[1,5-a]pyridine-2-carboxamide], the IC50 lay within 10 to 100 nM. For `Cc1c(NC(=O)c2cc3c(NC(C)(C)C(=O)O)cccn3n2)cccc1-c1cccc(Nc2nccc3cc(CN4CC[C@@H](O)C4)cnc23)c1C` [Compound 17, (R)-2-((2-((3'-((3-((3-hydroxypyrrolidin-1-yl)methyl)-1,7-naphthyridin-8-yl)amino)-2,2'-dimethyl-[1,1'-biphenyl]-3-yl)carbamoyl)pyrazolo[1,5-a]pyridin-4-yl)amino)-2-methylpropanoic acid], the IC50 was under 10 nM.
